Structures can show the parent of a compound that is named as a salt.

Chain of GST tagged IRAK4 (Q9NWZ3 whole entry): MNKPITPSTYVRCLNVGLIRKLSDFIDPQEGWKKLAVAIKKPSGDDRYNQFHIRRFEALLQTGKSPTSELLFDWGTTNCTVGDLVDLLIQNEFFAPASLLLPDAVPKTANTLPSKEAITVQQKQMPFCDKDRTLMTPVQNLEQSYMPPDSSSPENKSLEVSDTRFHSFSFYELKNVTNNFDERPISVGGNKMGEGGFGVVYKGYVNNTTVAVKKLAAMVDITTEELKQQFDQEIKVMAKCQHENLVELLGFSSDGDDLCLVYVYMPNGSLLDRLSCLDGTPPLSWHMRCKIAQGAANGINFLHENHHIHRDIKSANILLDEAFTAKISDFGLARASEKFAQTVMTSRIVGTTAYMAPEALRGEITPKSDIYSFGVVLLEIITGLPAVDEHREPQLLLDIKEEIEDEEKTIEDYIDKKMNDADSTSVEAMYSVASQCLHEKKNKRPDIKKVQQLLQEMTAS

This assay concerns the target GST tagged IRAK4 (Homo sapiens (Human), UniProt Q9NWZ3). Description: IRAK4 Kinase Assay (IMAP fluorescence polarization). The format is biochemical. As to conditions: 0.5 nM GST tagged IRAK4, 100 μM ATP, 30 minutes at 25° C. On the procedure: The kinase activity of IRAK4 is determined by its ability to catalyze the phosphorylation of a fluorescent polypeptide substrate. The extent of phosphorylation is measured using the IMAP technology (Molecular Devices) where the phosphorylated fluorescent substrate binds to the large M(III)-based nanoparticles which reduces the rotational speed of the substrate and thus increases its fluorescent polarization (FP).
20 μL reaction mixture contains 10 mM TriHCl, pH 7.2, 0.5 nM GST tagged IRAK4 (SignalChem), 100 nM fluorescent peptide substrate (RP7030, Molecular Devices), 100 μM ATP, 1 mM DDT, 1 mM MgCl2, and 0.01% Tween 20. The reaction is initiated by the addition of ATP. After incubation for 30 minutes at 25° C., 60 μL of Progressive IMAP Reagent (Molecular Devices) is added to stop the reaction. Change in RP7030's FP is determined by a FP reader (Analyst HT, LJL BioSystems).
On the technique in general: Polarisation of emitted light reports the rotation of a fluorescent probe.
By IC50 is commonly meant the concentration that inhibits the measured activity by half. A lower IC50 goes with higher potency. In the case of `Cn1cc(NC(=O)c2csc3ncc(N4CCC[C@@H](N)C4)nc23)c(C(F)(F)F)n1` [Example 9, 2-[(3R)-3-aminopiperidin-1-yl]-N-[1-methyl-3-(trifluoromethyl)-1H-pyrazol-4-yl] thieno[2,3-b] pyrazine-7-carboxamide trifluoroacetate], the IC50 stood at 1 nM.

In turn, `Cn1cc(NC(=O)c2csc3ncc(N[C@@H]4CCCC[C@@H]4O)nc23)c(C(F)F)n1` [Example 10, N-[3-(difluoromethyl)-1-methyl-1H-pyrazol-4-yl]-2-{[(1R,2S)-2-hydroxycyclohexyl]amino}thieno[2,3-b] pyrazine-7-carboxamide] yielded a concentration for half-maximal inhibition (IC50) of 30 nM.

The compound `Cn1cc(NC(=O)c2csc3ncc(N4CC5CCC4CN5)nc23)c(C(F)F)n1` (stereo not drawn) [Example 11, 2-(2,5-diazabicyclo[2.2.2]oct-2-yl)-N-[3-(difluoromethyl)-1-methyl-1H-pyrazol-4-yl]thieno[2,3-b] pyrazine-7-carboxamide] registered an IC50 of 4 nM.

In turn, `Cn1cc(NC(=O)c2csc3ncc(N4CCNCC4)nc23)c(C(F)F)n1` [Example 12, N-[3-(difluoromethyl)-1-methyl-1H-pyrazol-4-yl]-2-piperazin-1-ylthieno[2,3-b] pyrazine-7-carboxamide trifluoroacetate] yielded a half-maximal inhibitory concentration (IC50) of 3 nM.

`Cn1cc(NC(=O)c2csc3ncc(N4CCNCC5(CC5)C4)nc23)c(C(F)F)n1` [Example 13, 2-(5,8-diazaspiro[2.6]non-5-yl)-N-[3-(difluoromethyl)-1-methyl-1H-pyrazol-4-yl]thieno[2,3-b] pyrazine-7-carboxamide trifluoroacetate] came in with an IC50 of 6 nM.

In turn, `Cn1cc(NC(=O)c2csc3ncc(N4CCCNCC4)nc23)c(C(F)F)n1` [Example 14, 2-(1,4-diazepan-1-yl)-N-[3-(difluoromethyl)-1-methyl-1H-pyrazol-4-yl]thieno[2,3-b] pyrazine-7-carboxamide trifluoroacetate] displayed an IC50 of 5 nM.

In the case of `Cn1cc(NC(=O)c2csc3ncc(NC4CCCCNC4)nc23)c(C(F)(F)F)n1` (stereo not drawn) [Example 15, 2-(azepan-3-ylamino)-N-[1-methyl-3 (trifluoromethyl)-1H-pyrazol-4-yl]thieno[2,3-b] pyrazine-7-carboxamide trifluoroacetate], the IC50 was determined as 4 nM.

For the compound `Cn1cc(NC(=O)c2csc3ncc(N4CCCNCC4)nc23)c(Cl)n1` [Example 18, N-(3-chloro-1-methyl-1H-pyrazol-4-yl)-2-(1,4-diazepan-1-yl)thieno[2,3-b] pyrazine-7-carboxamide trifluoroacetate], inhibition was half-maximal at 14 nM (IC50).

For `Cn1cc(NC(=O)c2csc3ncc(N4CCCNCC4)nc23)c(Br)n1` [Example 21, N-(3-bromo-1-methyl-1H-pyrazol-4-yl)-2-(1,4-diazepan-1-yl)thieno[2,3-b] pyrazine-7-carboxamide trifluoroacetate], the IC50 came to 15 nM.

Take `Cn1cc(NC(=O)c2csc3ncc(N4CCC[C@@H](N)C4)nc23)c(C(F)F)n1` [Example 24, 2[(3R)-3-aminopiperidin-1-yl] N-[3-(difluoromethyl)-1-methyl-1H-pyrazol-4-yl]thieno[2,3-b] pyrazine-7-carboxamide trifluoroacetate]: the IC50 was found to be 0.2 nM.

`Cn1cc(NC(=O)c2csc3ncc(N[C@@H]4CCCC[C@@H]4N)nc23)c(C(F)F)n1` [Example 25, 2-{[(1R,2S)-2-aminocyclohexyl]amino}-N-[3-(difluoromethyl)-1-methyl-1H-pyrazol-4-yl]thieno[2,3-b] pyrazine-7-carboxamide trifluoroacetate] gave an IC50 of 0.2 nM.

`Cn1cc(NC(=O)c2csc3ncc(N4CCCNCC4)nc23)c(C#N)n1` [Example 28, N-(3-cyano-1-methyl-1H-pyrazol-4-yl)-2-(1,4-diazepan-1-yl)thieno[2,3-b] pyrazine-7-carboxamide trifluoroacetate] returned a concentration for half-maximal inhibition (IC50) of 26 nM.
